Source: patent publication US20120034296A1 (priority 2009, published 2012)
Structures can show the parent of a compound that is named as a salt. Where two headings read alike, the source gives them in different places.

Experiments:
[1] = test system: Gadd45a, ATF3, SmagP, Cacna2d1; conditions: rat, in vivo

With `CN(C)CCC=C1c2ccccc2CCc2ccccc21` [amitriptyline] as the molecule, how does the “expression of Gadd45a, ATF3, SmagP, Cacna2d1 in dorsal root ganglia” value [1] read?
The value was “dramatically upregulated”.

What does the source list for `CCCCN1CCCCC1C(=O)Nc1c(C)cccc1C` (stereo not shown) [bupivacaine solution, bupivacaine hydrochloride]?
myotoxicity (C2C12 cells): increased with concentration and duration of exposure; neurotoxicity / cytotoxicity (PC12 cells): increased with concentration and duration of exposure

For `C[C@@H]1C[C@H]2[C@@H]3CCC4=CC(=O)C=C[C@]4(C)[C@@]3(F)[C@@H](O)C[C@]2(C)[C@@]1(O)C(=O)CO` [dexamethasone], which myotoxicity (C2C12 cells; mouse) is on record?
Its myotoxicity is “not myotoxic at up to 2 days”.

What about the survival (C2C12 cells; mouse) of the same molecule?
The survival was 80±5%.

What about the viability (C2C12 cells; mouse) of the same molecule?
Its viability is greater than 90%.

And the decrease in survival (PC12 cells; rat)?
The decrease in survival was 20%.
